Data published in patent US4576951A, “Proglumide, pharmaceutical preparations and compositions including it for use in human pain relief” (priority 1983, dated 1986).
Read-outs that look alike come from different tables or passages of the source.

Legend:
[1] = Tail Flick Test after transcutaneous shock: analgesic activity of endogenous opiates; format: in vivo, rats
Protocol: Influence of proglumide on the analgesic activity of endogenous opiates released under transcutaneous shock in rats measured by the Tail Flick Test The method is that described by Lewis et al. (J. Naurosc. 1, 358 (1981)). Male rats having a weight of about 200 g, which have not been fasting, are used. The animals are stressed by the application to the front leg of a 60 Hz-2.5 mA current in pulses of a duration of one second every five seconds for 20 minutes. This stress regime causes the release of endogenous opiates.

[2] = format: in vivo, rats
Protocol: Activity of proglumide as an antagonist to the tolerance induced by opiates
Groups of five male rats having a weight of about 200-250 g were used.
The determination of the pain threshold was effected 1, 3, 6, 9 and 12 hours after the first treatment by the Tail Flick test.
The data given in Table 5 indicate the percentage variations in the latency (appearance of pain) before and after treatment with the drugs.

[3] = format: in vivo, rats; remark: listed apart in the source
Protocol: The method is that described by Harris et al. (J. Pharmcol. Exp. Ther. 143 (1964) 141-148).
Male rats are used which have a weight of about 150-200 g and which have not been fasting. A point is chosen on the tail and this is irradiated by a heat source (75° C.) and the time (in seconds) for which the animal remains without moving its tail is measured.
A maximum period of time under the heat source of 8 seconds is chosen after which the animal is, in any case, removed in order to avoid tissue damage. The measurement is effected before (controls) and after treatment with the drugs. […] The percentage variation is calculated for each individual animal by the following formula: [formula] (time measurements are in seconds)
The measurements are carried out 10, 20, 30, 45, 60 and 90 minutes after treatment with the analgesics.

[4] = Potentiation of analgesic effect of enkephalinamide (DALA) i.c.v. (Tail Flick test); format: in vivo, rats
Protocol: Potentiation of the analgesic activities of enkephalins induced by proglumide
In order to check one of the possible mechanisms for the action of proglumide, that is its possible inhibition of the enzymatic degradation of endogenous enkephalins, the following experiment was carried out:
A cannula was implanted in the right lateral ventricle of male rats having a weight of 150-200 g (groups of five animals were used) in order to allow the intracerebroventricular (I.C.V.) administration of drugs according to the method of Noble et al (Life Science 6, (1970) 281-291). […]

[5] = Hot plate test: potentiation of analgesic activity of opiates; format: in vivo, rats; conditions: proglumide 5 mg/kg s.c.
Protocol: The method is that described by Eddy et al. (J. Pharmac. Exp. Therm. 107, 385 (1953)).
Groups of five male rats having a weight of about 150 g and which have not been fasting are used.
The animals are placed on a metal plate which is on the bottom of a transparent cylinder heated to 55°±1° C. by an azeotropic boiling mixture (1:1 acetone-ethyl formate). The time which passes between the moment at which the animal is placed on the hot plate and the moment at which it licks its feet or tries to jump out of the cylinder is defined as the reaction time. The control reaction time is measured 10 and 5 minutes before the administration of the drugs and 10, 20, 30, 45, 60, 90 minutes afterwards. The animals are left on the plate for a maximum period of 30 seconds. The response to the administration of the product is considered positive if at least a doubling of the normal reaction time is seen. The results obtained are given in Table 2 which records the groups treated, the doses administered and the stay times on the plate expressed as the number of positive responses over the number treated.

in vivo = conditions: mouse, sc
Protocol: The drug (or drugs) under examination was administered sub-cutaneously. The animals were kept under observation for 15 days after the administration.
Ten animals were used for each dose.

[6] = 1 min, proglumide 20 mg/kg, no stress
[7] = 1 min, stress + proglumide 1 mg/kg
[8] = 1 min, stress + proglumide 5 mg/kg
[9] = 1 min, stress + proglumide 20 mg/kg
[10] = 5 min, proglumide 20 mg/kg, no stress
[11] = 5 min, stress + proglumide 1 mg/kg
[12] = 5 min, stress + proglumide 5 mg/kg
[13] = 5 min, stress + proglumide 20 mg/kg
[14] = 10 min, proglumide 20 mg/kg, no stress
[15] = 10 min, stress + proglumide 1 mg/kg
[16] = 10 min, stress + proglumide 5 mg/kg
[17] = 10 min, stress + proglumide 20 mg/kg
[18] = 15 min, proglumide 20 mg/kg, no stress
[19] = 15 min, stress + proglumide 1 mg/kg
[20] = 15 min, stress + proglumide 5 mg/kg
[21] = 15 min, stress + proglumide 20 mg/kg

CCCN(CCC)C(=O)C(CCC(=O)O)NC(=O)c1ccccc1 (racemic) [Proglumide, D,L-4-benzamido-N, N-dipropylglutaramic acid]
Average latency (tail flick) [1, 6]: 3.66 ± 0.25 s
t (vs control stress) [1, 6]: 6.90
t (vs control) [1, 6]: 0.37
t (vs control stress) [1, 7]: 0.92
t (vs control) [1, 7]: 5.21
t (vs control stress) [1, 8]: 0.87
t (vs control) [1, 8]: 4.25
t (vs control stress) [1, 9]: 6.14
t (vs control) [1, 9]: 9.54
Average latency (tail flick) ([1]; 1 min after shock, stress + proglumide 1 mg/kg): 6.37 ± 0.45 s
Average latency (tail flick) ([1]; 1 min after shock, stress + proglumide 5 mg/kg): 6.33 ± 0.57 s
Average latency (tail flick) ([1]; 1 min after shock, stress + proglumide 20 mg/kg): 13.59 ± 1.0 s
Average latency (tail flick) [1, 10]: 3.59 ± 0.20 s
t (vs control stress) [1, 10]: 5.88
t (vs control) [1, 10]: 1.36
t (vs control stress) [1, 11]: 0.69
t (vs control) [1, 11]: 5.18
t (vs control stress) [1, 12]: 2.74
t (vs control) [1, 12]: 5.62
t (vs control stress) [1, 13]: 3.90
t (vs control) [1, 13]: 7.29
Average latency (tail flick) ([1]; 5 min after shock, stress + proglumide 1 mg/kg): 6.55 ± 0.43 s
Average latency (tail flick) ([1]; 5 min after shock, stress + proglumide 5 mg/kg): 8.5 ± 0.76 s
Average latency (tail flick) ([1]; 5 min after shock, stress + proglumide 20 mg/kg): 9.16 ± 0.67 s
Average latency (tail flick) [1, 14]: 3.57 ± 0.16 s
t (vs control stress) [1, 14]: 2.57
t (vs control) [1, 14]: 0.12
t (vs control stress) [1, 15]: 0.86
t (vs control) [1, 15]: 1.83
t (vs control stress) [1, 16]: 0.72
t (vs control) [1, 16]: 2.98
t (vs control stress) [1, 17]: 5.01
t (vs control) [1, 17]: 7.02
Average latency (tail flick) ([1]; 10 min after shock, stress + proglumide 1 mg/kg): 4.07 ± 0.22 s
Average latency (tail flick) ([1]; 10 min after shock, stress + proglumide 5 mg/kg): 4.66 ± 0.32 s
Average latency (tail flick) ([1]; 10 min after shock, stress + proglumide 20 mg/kg): 6.94 ± 0.44 s
Average latency (tail flick) [1, 18]: 3.57 ± 0.15 s
t (vs control stress) [1, 18]: 0.04
t (vs control) [1, 18]: 1.49
t (vs control stress) [1, 19]: 0.43
t (vs control) [1, 19]: 0.82
t (vs control stress) [1, 20]: 0.98
t (vs control) [1, 20]: 0.11
t (vs control stress) [1, 21]: 3.34
t (vs control) [1, 21]: 2.89
Average latency (tail flick) ([1]; 15 min after shock, stress + proglumide 1 mg/kg): 3.68 ± 0.16 s
Average latency (tail flick) ([1]; 15 min after shock, stress + proglumide 5 mg/kg): 3.81 ± 0.16 s
Average latency (tail flick) ([1]; 15 min after shock, stress + proglumide 20 mg/kg): 4.78 ± 0.32 s
effect on the analgesic effect of endogenous enkephalins ([1]; proglumide 5 mg/kg): can increase (in one case significantly)
effect on the analgesic effect of endogenous enkephalins ([1]; proglumide 20 mg/kg): significantly more marked both in intensity and duration
antagonism of development of tolerance ([2]; proglumide 20 mg/kg): highly significant
effect on development of tolerance induced by morphine ([2]; rat, in vivo, ip): opposes the development of tolerance
ED50 for potentiation of the analgesic effect (proglumide increasing effect by 50%) ([3]; rat, in vivo, ip): 4.15 mg/kg
ED50 for potentiation of the analgesic effect (proglumide increasing effect by 50%) ([3]; strengthening of propoxyphene): 2.26 mg/kg
% variation in the latency to pain ([4]; 5 min, alone i.c.v.: proglumide 1 or DALA 10 μg/kg): 18.06 ± 10.8%
% variation in the latency to pain ([4]; 15 min, alone i.c.v.: proglumide 1 or DALA 10 μg/kg): 2.18 ± 10.6%
% variation in the latency to pain ([4]; 30 min, alone i.c.v.: proglumide 1 or DALA 10 μg/kg): 18.36 ± 5.9%
% variation in the latency to pain ([4]; 45 min, alone i.c.v.: proglumide 1 or DALA 10 μg/kg): -10.94 ± 14.5%
% variation in the latency to pain ([4]; 60 min, alone i.c.v.: proglumide 1 or DALA 10 μg/kg): -5.58 ± 8.1%
% variation in the latency to pain ([4]; 90 min, alone i.c.v.: proglumide 1 or DALA 10 μg/kg): 13.3 ± 8.4%
Average (0 → 90) % variation in the latency to pain ([4]; alone i.c.v.: proglumide 1 or DALA 10 μg/kg): 5.9 ± 5.12%
action on the analgesic effect of the enkephalinamide (DALA) ([4]; i.c.v.): potentiating action of proglumide on the analgesic effect of the enkephalinamide (DALA) both in intensity and duration
significance of potentiating action on DALA analgesia ([4]; proglumide 1 μg/kg): highly significant
increase of the analgesic effect of morphine and methadone [5]: at least double
LD50 at 360 h (in vivo): > 5000 mg/kg
